Assay results from US20220127682A1, “SELECTION AND TREATMENT OF CANCER WITH COMBINATION THERAPIES” (Massachusetts Institute of Technology, priority 2020, published 2022).
“Also recorded” adds a separate entry of the source. Where two headings read alike, the source gives them in different places.

Key:
[1] = tested on: several tumor cell lines, including those that express MDR1; conditions: including lines that express multidrug-resistant protein 1 (MDR1); cited from earlier work
[2] = tested on: panel of >50 other kinases; conditions: concentrations up to 10 μM; in vitro; cited from earlier work
[3] = tested on: HCT116, NCI-H460, and taxane-resistant CXB1 colon carcinoma xenografts; conditions: mouse model; ~25 mg/kg/day; cited from earlier work
[4] = cited from earlier work
[5] = tested on: C4-2 castrate resistant prostate cancer cells; experiment: Cell viability (CellTiter-Glo, 72 h) of drug combinations vs Bliss expected; type: cell-based; conditions: for tumor cell killing of PLK inhibitor combined with abiraterone, vs expected additive: C4-2 CRPC cells, 72 hours, Bliss independence
[6] = advanced solid tumors; cited from earlier work
[7] = tested on: more than 90 cell lines (multiple cancer types); experiment: Combinatorial drug screening of more than 90 cell lines for more than additive effect; type: cell-based; conditions: onvansertib and abiraterone; more than 90 cell lines screened; data not shown
[8] = tested on: large number of cell lines, solid and hematological tumors; conditions: cited from earlier work
[9] = tested on: tumor cells and normal cells; conditions: cited from earlier work
[10] = tested on: PSN-1 pancreatic cancer cells; experiment: Cell viability (CellTiter-Glo, 72 h) of drug combinations vs Bliss expected; type: cell-based; conditions: onvansertib 22.2 nM plus abiraterone
[11] = tested on: LNCaP androgen-dependent prostate cancer cells; experiment: as above; type: cell-based; conditions: Bliss independence
[12] = tested on: OCI-AML-3 acute myeloid leukemia cells; experiment: as above; type: cell-based; conditions: onvansertib 22.2 nM plus abiraterone
[13] = tested on: OAW28 ovarian cancer cells; experiment: as above; type: cell-based; conditions: onvansertib 15 nM plus abiraterone
[14] = tested on: Panc 10.05 pancreatic cancer cells; experiment: as above; type: cell-based; conditions: onvansertib 33.3 nM plus abiraterone
[15] = tested on: MV-4-11 acute myeloid leukemia cells; experiment: as above; type: cell-based; conditions: onvansertib 22.2 nM plus abiraterone
[16] = tested on: colorectal cancer cell HT-29; conditions: read-out: anti-proliferative IC50; cited from earlier work
[17] = tested on: breast cancer cell MDA-MB-468; conditions: read-out: anti-proliferative IC50; cited from earlier work
[18] = tested on: HT-29 human colorectal tumors; conditions: HT-29 tumors in nude mouse, cited from earlier work
prostate cancer cell PC3 = conditions: read-out: anti-proliferative IC50; cited from earlier work
skin cancer cell A375 = conditions: read-out: anti-proliferative IC50; cited from earlier work
PLK1 = PLK1 (Homo sapiens, UniProt P53350); conditions: cited from earlier work
[19] = tested on: lung cancer cell line H82; conditions: read-out: anti-proliferative IC50; cited from earlier work
[20] = cited from earlier work; remark: listed apart in the source
[21] = tested on: various human tumor cell lines; conditions: cited from earlier work
mouse xenograft models = conditions: 10 mg/kg and 20 mg/kg on days 1 and 28; cited from earlier work
xenograft tumor models = conditions: under proper dose scheduling; cited from earlier work
[22] = cited from earlier work; remark: listed apart in the source
[23] = tested on: Bel-7402, MCF-7, and MIA-PaCa cells xenografts; conditions: 250 mg/kg; Bel-7402, MCF-7, MIA-PaCa xenografts; cited from earlier work
[24] = cited from earlier work; remark: listed apart in the source
[25] = target: several tyrosine kinases and cyclin-dependent kinase 1 (Cdk1); conditions: cited from earlier work
BT20 cells xenograft = conditions: 200 mg/kg; cited from earlier work
[26] = cited from earlier work; remark: listed apart in the source
[27] = doses of 24 to 48 mg/m^2 for 5 consecutive days every 4 weeks; cited from earlier work
[28] = tested on: C4-2 CRPC cells expressing histone H2B-mCherry and mEmerald-tubulin; experiment: Time-lapse live-cell microscopy and spindle orientation analysis; type: cell-based; conditions: for frequency of division not parallel to the growth surface: live-cell microscopy; for spindle orientation / spindle rotation during mitosis: net angular displacement and cumulative angular distance
Experimental: C4-2 CRPC cells expressing histone H2B-mCherry and mEmerald-tubulin. were plated in 12-well plates in phenol red free media, the following day drugs were added as indicated and the cells were imaged on a EVOS™ FL Auto Cell Imaging System equipped with an onstage incubator to maintain 37° C., adequate humidity, and 5% CO2. Images were acquired at 15-minute intervals for 72 hours using a 20× objective lens. For the rotation analysis, the angle of the spindles major axis was tracked starting from when it was first apparent, prometaphase, until telophase. The net angular displacement is the total change in angle of the spindle during mitosis from start until finish and is the absolute value of the sum of all stepwise rotations. The cumulative angular distance is the total amount of rotation regardless of direction that occurred during mitosis and is the sum of the absolute value of all rotations.

C4-2 CRPC cells = experiment: Identification of mitotic (pHH3) and apoptotic (cleaved caspase-3) cells by flow cytometry; type: cell-based; conditions: drug added to onvansertib
Experimental: C4-2 CRPC cells were plated in 6-well plates at a density of 300,000 cells per well and a total volume of 3 mls. The following day the indicated drugs were diluted in the appropriate growth media while maintaining a constant final concentration of DMSO and added to the wells. After the indicated amount of time cells were harvested by trypsinization. The media, trypsin and PBS wash were collected together to avoid loss of loosely attached or detached cells. Cells were fixed in 4% formaldehyde in PBS for 15 minutes, washed with PBS containing 1% bovine serum albumin (PBS-BSA), and then stored in methanol at −20° C. overnight. Cells were then washed twice in PBS-BSA 0.1% Tween-20, incubated with primary antibodies overnight at 4° C., washed with PBS-BSA 0.1% Tween-20 and incubated for 1 hour with fluorescent-dye conjugated secondary antibodies (diluted 1:200, Alexa Fluor, Molecular Probes) at room temperature for 1 hour. Primary antibodies included anti-phospho-serine 10 histone H3 (clone 3H10, Millipore) and anti-active caspase-3 (clone C92-605, BD Pharmingen). The fixed cells were then washed with PBS-BSA 0.1% Tween-20 and resuspended in PBS containing 1 μg/ml 4,6-diamidino-2-phenylindole (DAPI, Molecular Probes) to stain DNA and analyzed using a BD™ LSRII flow cytometer (Becton Dickinson) and the FlowJo™ software package.

[29] = preclinical, cited from earlier work
[30] = tested on: Cdc25C-T96 phosphorylation; conditions: read-out: EC50, Cdc25C-T96 phosphorylation; cited from earlier work
cell mitosis = conditions: read-out: EC50, inhibition of cell mitosis; cited from earlier work

PLK1, sequence (P53350 whole entry): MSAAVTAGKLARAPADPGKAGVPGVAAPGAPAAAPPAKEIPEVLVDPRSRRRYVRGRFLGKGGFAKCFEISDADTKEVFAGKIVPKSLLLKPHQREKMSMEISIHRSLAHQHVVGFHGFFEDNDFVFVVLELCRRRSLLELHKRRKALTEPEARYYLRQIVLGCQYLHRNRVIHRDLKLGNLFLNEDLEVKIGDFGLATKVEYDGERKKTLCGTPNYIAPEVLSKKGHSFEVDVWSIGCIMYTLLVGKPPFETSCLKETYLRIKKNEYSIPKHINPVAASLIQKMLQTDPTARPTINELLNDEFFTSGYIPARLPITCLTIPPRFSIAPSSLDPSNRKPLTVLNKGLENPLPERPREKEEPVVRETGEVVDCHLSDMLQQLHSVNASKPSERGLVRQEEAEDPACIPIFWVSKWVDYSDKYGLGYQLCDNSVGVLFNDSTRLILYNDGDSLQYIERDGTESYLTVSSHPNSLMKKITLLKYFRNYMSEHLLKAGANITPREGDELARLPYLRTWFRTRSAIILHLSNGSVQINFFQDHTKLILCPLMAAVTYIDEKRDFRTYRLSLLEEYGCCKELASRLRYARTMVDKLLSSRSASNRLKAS

COc1cc(C(=O)NC2CCN(C)CC2)c(F)cc1Nc1ncc2c(n1)N(C1CCCC1)CC(F)(F)C(=O)N2C [TAK-960]
activity in tumor cell lines [1]: shown activity

CC[C@@H]1C(=O)N(C)c2cnc(Nc3ccc(C(=O)N[C@H]4CC[C@H](N5CCN(CC6CC6)CC5)CC4)cc3OC)nc2N1C(C)C [BI6727, volasertib]
inhibitory activity against a panel of >50 other kinases [2]: no inhibitory activity
growth of multiple human carcinoma xenografts [3]: significantly inhibits the growth
recommended dose for further development ([4]; based on overall tolerability): 300 mg
MTD ([4]; i.v. once every 3 weeks, advanced solid tumors): 400 mg
DLTs ([4]; i.v. once every 3 weeks, dose escalation 12-450 mg): neutropenia, thrombocytopenia, and febrile neutropenia
tumor cell killing of PLK inhibitor combined with abiraterone, vs expected additive [5]: more than additive
MTD in combination with afatinib [6]: 300 mg

CN1CCN(c2ccc(OC(F)(F)F)c(Nc3ncc4c(n3)-c3c(c(C(N)=O)nn3CCO)CC4)c2)CC1 [onvansertib]
cell lines in which the more than additive effect was detected [7]: approximately 30%
activity in proliferation assays [8]: low nanomolar activity
sensitivity of tumor cells to induced cell death relative to normal cells [9]: 10 fold
response to the combination of abiraterone and PLK1 inhibitor vs expected additive [10]: greater than additive response
viability effect of PLK1 inhibitor combined with abiraterone, vs expected additive [11]: No greater than additive effect
response to the combination of abiraterone and PLK1 inhibitor vs expected additive [12]: do not have a greater than additive response
response to the combination of abiraterone and PLK1 inhibitor vs expected additive [13]: do not have a greater than additive response
response to the combination of abiraterone and PLK1 inhibitor vs expected additive [14]: do not have a greater than additive response
response to the combination of abiraterone and PLK1 inhibitor vs expected additive [15]: greater than additive response
tumor cell killing of PLK inhibitor combined with abiraterone, vs expected additive [5]: more than additive

COc1cc(C(=O)NC2CCN(C)CC2)ccc1NC1NCC2C(N1)N(C1CCCC1)CC(F)(F)C(=O)N2C (stereo not shown) [RO3280]
IC50 [16]: 10 nM
IC50 [17]: 19 nM
antitumor activity ([18]; dosed more frequently): complete tumor regression
tumor growth inhibition ([18]; once weekly at 40 mg/kg): 72%
IC50 (prostate cancer cell PC3): 12 nM
IC50 (skin cancer cell A375): 70 nM
IC50 (PLK1): 3 nM
IC50 [19]: 5 nM

CC(=O)O[C@H]1CC[C@@]2(C)C(=CC[C@@H]3[C@@H]2CC[C@]2(C)C(c4cccnc4)=CC[C@@H]32)C1 [Abiraterone acetate, abiraterone acetate]
solubility in water [20]: practically insoluble

COc1ccc(S(=O)(=O)Nc2ccccc2/C=C/c2cc[n+]([O-])cc2)cc1 [HMN-176]
cytotoxicity toward various human tumor cell lines [21]: potent cytotoxicity
antitumor activity in mouse xenograft models (mouse xenograft models): potent antitumor activity
enzymatic activity of PLK1 (PLK1; affects subcellular distribution of PLK1 instead): does not directly inhibit

C[C@@H](Oc1cc(-n2cnc3ccc(CN4CCN(C)CC4)cc32)sc1C(N)=O)c1ccccc1C(F)(F)F [GSK461364]
effect in xenograft tumor models (xenograft tumor models): tumor regression
tumor cell killing of PLK inhibitor combined with abiraterone, vs expected additive [5]: more than additive
DLTs ([22]; i.v., schedules A and B, 28-day cycle): grade 4 neutropenia, sepsis, and pulmonary embolism
incidence of venous thrombotic emboli (VTE) ([22]; in vivo): 20%
final recommended phase II dose ([22]; intravenously, schedule A (days 1, 8, and 15)): 225 mg

COc1cc(OC)c(/C=C/S(=O)(=O)Cc2ccc(OC)c(NCC(=O)[O-])c2)c(OC)c1.[Na+] [ON 01910, rigosertib]
tumor growth [23]: inhibited tumor growth
DLT ([24]; at the MTD): Grade 3 abdominal pain
MTD ([24]; i.v., days 1, 4, 8, 11, 15, and 18 in 28-day cycles): 3,120 mg
IC50 [25]: 18 to 260 nM
tumor growth (BT20 cells xenograft): inhibition of tumor growth

COc1ccc(S(=O)(=O)N(C(C)=O)c2ccccc2/C=C/c2cc[n+]([O-])cc2)cc1 [HMN-214]
dose-limiting toxicities ([26]; at 9.9 mg/m^2/d): severe myalgia/bone pain syndrome and hyperglycemia
maximum tolerated dose and recommended dose ([26]; continuous 21-day dosing schedule every 28 days): 8.0 mg/m^2/d
DLTs [27]: prolonged neutropenia, febrile neutropenia, neutropenic sepsis, electrolyte disturbance, neuropathy, and myalgia

CNC(=O)c1ccc(N2C(=S)N(c3ccc(C#N)c(C(F)(F)F)c3)C(=O)C2(C)C)cc1F [enzalutamide]
frequency of division not parallel to the growth surface [28]: did not result in these phenotypes
spindle orientation / spindle rotation during mitosis [28]: did not result in these phenotypes
more than additive effect with PLK1 inhibitors ([5]; C4-2 cells, enzalutamide combined with onvansertib or BI2536): not observed
effect on mitotic arrest (pHH3 positive cells) caused by PLK1 inhibitor onvansertib (C4-2 CRPC cells): does not enhance the mitotic arrest

C[C@]12CC[C@H](O)CC1=CC[C@@H]1[C@@H]2CC[C@]2(C)C(c3cccnc3)=CC[C@@H]12 [abiraterone]
frequency of division not parallel to the growth surface [28]: increased
spindle orientation / spindle rotation during mitosis [28]: disrupted proper spindle orientation
effect on apoptotic cell death (cleaved Caspase-3 positive cells) after onvansertib (C4-2 CRPC cells): exacerbates subsequent apoptotic cell death
effect on mitotic arrest (pHH3 positive cells) caused by PLK1 inhibitor onvansertib (C4-2 CRPC cells): dramatically increased the frequency of mitotic arrest; also recorded: enhances the mitotic arrest

Cc1ncc(CCCN(C)C)cc1Nc1ncc2c(n1)-c1ccc(C(F)(F)F)cc1NC(=S)C2 [MLN0905]
maximum tolerated dose ([29]; QD (daily) schedule): 6.25 mg/kg
maximum tolerated dose ([29]; QD×3/wk (3-days on/4-days off) schedule): 14.5 mg/kg
EC50 [30]: 29 nM
EC50 (cell mitosis): 9 nM
